Records with an inconclusive call do not appear. Active and inactive are the calls of the source.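 Rule for the calls: active = signal-lowering compounds whose fitted half-maximal concentration is at most ten times their highest tested dose; inconclusive = flat fit between -30 and -70%, or poor fit; inactive = flat within 30%, signal rising, or potency beyond limit.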
These compounds were tested against POS-1 (Caenorhabditis elegans) binding to mex-3 RNA (assay: C. elegans POS-1 RNA interaction disruptors – biochemical, fluorescence polarization, cherry-picked samples, set 2, counter-screen for MEX-5 RNA-binding inhibitor project, dose response (AID 493130;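 note: POS-1 as maltose binding protein fusion made in E. coli with FITC RNA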)). Details: POS-1/mex-3 RNA fluorescence polarization, 1 h.

SMILES | AC50
O=C(N/N=C/c1c(O)n(C2CC2)c(=S)[nH]c1=O)c1ccccc1O | 6.64 µM
COCCCNC(=O)c1ccc2c3c(onc13)-c1ccccc1C2=O | 0.186 µM
COCC1CCN(Cc2c(C(=O)N3CCc4ccccc4C3)nc3ccc(Cl)cn23)C1 (stereo unspecified) | > 10 µM (inactive)
COc1ccccc1C(=O)Oc1ccc2c(c1)O/C(=C\c1ccncc1)C2=O | 3.41 µM
O=C1N=c2ccccc2=C1c1sc(=S)n(NC(=O)c2ccccc2)c1O | 8.56 µM
O=C(O)C1Nc2c(Cl)cc(Cl)cc2C2C=CCC12 (stereo unspecified) | 5.13 µM
Cc1ccc(C)n1-c1ccccc1N | 5.78 µM
C#CCN1C(=O)S/C(=C\c2cc3c(cc2OC)OCO3)C1=O | 8.97 µM
Cc1ccc(O)c(C(=O)c2cc(C#N)c(=O)n(-c3nccs3)c2)c1 | 4.09 µM
CCN1/C(=C2\SC(=S)N(Cc3ccccc3)C2=O)Sc2ccccc21 | 1.6 µM

Same assay, conditions: POS-1/mex-3 RNA fluorescence polarization, 1 h; at 10 µM (top of the series)

SMILES | activity change, negative = inhibition
CCOC(=O)C1CCN(c2nc3ccccc3nc2C(C#N)C(=O)OC(C)C)CC1 (stereo unspecified) | inactive
C#CCOCCOCCOCCNc1nc(N2CCN(C(=O)[C@H](CCCCN)n3cc(C(N)CO)nn3)CC2)nc(N2CCN(C(=O)[C@H](CCC(=O)O)n3cc(C(N)CC(C)C)nn3)CC2)n1 (stereo partly specified) | inactive
Cc1nc2c3ccccc3nc(NNC(=O)CCC(=O)NC(C)C)n2n1 | inactive
COc1ccc2cc(/C=C3\SC(=S)NC3=O)c(N3CCOCC3)nc2c1 | inactive
Nc1c(C(=O)Nc2cccc(Cl)c2Cl)sc2nc(-c3cccnc3)ccc12 | inactive
O=C(/C=C/Nc1ccc(S(=O)(=O)Nc2cnc3ccccc3n2)cc1)c1ccccc1 | inactive
COCc1cc(C)nc(N/N=C/c2ccc(-c3cc(C(=O)O)ccc3Cl)o2)c1C#N | inactive
CCOC(=O)Cc1csc(NC(=O)c2sc3nc4c(C)cc(C)cc4cc3c2N)n1 | inactive
O=C(N/N=C/c1cccnc1)c1ccccc1 | inactive
Cc1ccc(-c2cc(C(=O)O)c3cc(Br)ccc3n2)o1 | inactive
Cc1ccc(C(=O)N/C(=C\c2ccc(-c3ccc(Cl)cc3)o2)C(=O)NCCCN(C)C)cc1 | inactive
CC(=O)Nc1ccc(-c2csc(Nc3cccc(C)n3)n2)cc1 | inactive
O=C(O)CCC(=O)NNc1ncnc2ccccc12 | inactive
Cc1cccc(NC(=O)c2sc3nc4c(c(-c5ccco5)c3c2N)CCC4)c1 | inactive
O=C(NNc1ncnc2c1cnn2-c1ccc(F)cc1)c1ccco1 | inactive
Nc1nonc1C(=O)N/N=C/c1cc(Br)ccc1O | inactive
COc1cc2c(cc1N/C=C(\C#N)c1nc(-c3ccc(F)cc3)cs1)oc1ccccc12 | inactive
O=C(O)c1ccc(N2C(=O)c3cccc4c(C(=O)O)ccc(c34)C2=O)cc1 | inactive
CSCC(C)N1CCC(n2nccc2NC(=O)CCc2ccccc2)CC1 (stereo unspecified) | inactive
COc1cccc(NCc2cc(=O)oc3cc(C)c(C(C)C)cc23)c1 | inactive
CCN(CC)c1ccc(/C=N/N2CCN(c3ccccc3OC)CC2)cc1 | inactive
CC1=NN(C(N)=S)C(=O)C1N=Nc1cccc(Cl)c1C (stereo unspecified) | inactive
O=C(O)c1cccc(NC2=C(Cl)C(=O)c3ccccc3C2=O)c1 | inactive
O=C(CCN1C(=O)/C(=C/c2ccccc2Cl)SC1=S)NNC(=O)c1ccccc1O | inactive
N[C@@H](Cc1ccccc1)C(=O)N1CCC(C(=O)NCC(=O)Nc2ccc(F)cc2)CC1 | inactive
CN=c1scc(-c2ccco2)n1/N=C/c1ccc(O)c(O)c1 | inactive

SMILES | activity change, negative = inhibition
COC(=O)c1cc2c(-c3ccccc3)cc3ccccn3c-2c1C(=O)OC | inactive
NC(=S)N=Nc1c(O)[nH]c2ccccc12 | inactive
COc1ccc(C(=O)C/C(=C\C(=O)c2ccc(C)cc2)c2ccccc2)cc1 | inactive
O=C(O)c1cc(-c2ccco2)nc2cc3ccccc3cc12 | inactive
O=Cc1ccc2ccc3cccnc3c2n1 | inactive
Cc1nc2c(N=Nc3ccccc3F)c(N)nn2c(N)c1C#N | inactive
CCS(=O)(=O)c1ccc2oc(=O)c(/C=C(\O)c3ccc(Cl)cc3)nc2c1 | inactive
Cc1c(N=Cc2cc3c(cc2[N+](=O)[O-])OCO3)cccc1[N+](=O)[O-] | inactive
Cc1c(C#N)c(O)[nH]c(=O)c1N=Nc1ccc(S(N)(=O)=O)cc1 | inactive
COc1ccccc1/C=C1\SC(=S)N(CCC(=O)Nc2cc(C)on2)C1=O | inactive
Cc1c(NC(=O)c2ccc(=O)oc2)c(=O)n(-c2ccccc2)n1C | inactive
O=C(NNC(=O)c1ccco1)c1csc(N2CCOCC2)n1 | inactive
CCNC(=S)NNC(=O)c1ccccn1 | inactive
Cc1snc2sc(C(=O)c3ccc(Br)cc3)c(N)c12 | inactive
CN(C)c1ccc(/C=C/c2nc3ccccc3c(=O)[nH]2)cc1 | inactive
Oc1cc2c(c(Cl)c1O)CCNCC2c1ccccc1 (stereo unspecified) | inactive
CCc1ccc(/C=C2\Oc3cc(OS(C)(=O)=O)ccc3C2=O)cc1 | inactive
Cc1cc(=O)n2[nH]c(N)c(N=Nc3ccccc3F)c2n1 | inactive
Cc1cc(=O)oc(C)c1C(=O)Nc1c(C)n(C)n(-c2ccccc2)c1=O | inactive
CCCNc1nc2ccccc2n2c(C)nnc12 | inactive
Cn1c(C2=C(O)CN(c3ccccc3)C2=N)nc2ccccc21 | inactive
COc1cc(/C=C/c2nc(-c3ccccc3O)n[nH]2)cc(OC)c1OC | inactive
Cc1ccc(S(=O)(=O)c2cc3c(=O)n4ccccc4nc3n(C)c2=N)cc1 | inactive
COC(=O)c1ccc(CC(=O)c2ccc(O)cc2O)o1 | inactive
O=C(Nc1nccs1)c1ccc(-c2ccc(Cl)cc2)o1 | inactive

— PubChem BioAssay AID493130 (Broad Institute, 2011)
